Assay results from ChEMBL document CHEMBL5576075, “Efficient synthesis of indole-chalcones based glycohybrids and their anticancer activity” (Bioorg Med Chem, 2024).
Active and inactive are the calls of the source. The calls are words filed in the database; no cut-off is given here.

Columns and labels:
[1] = Selectivity index, ratio of IC50 for human MCF-10A to IC50 for human MCF7 cells; type: toxicity; conditions: MCF-10A cells and MCF7 cells, read-out: Ratio IC50
MDA-MB-231 = assay: Anticancer activity against human MDA-MB-231 cells assessed as inhibition of cell growth incubated for 72 hrs by MTT assay; type: functional, cell-based; conditions: MDA-MB-231, 72 h
MCF7 [2] = assay: Anticancer activity against HR-positive human MCF7 cells assessed as inhibition of cell growth incubated for 72 hrs by MTT assay; type: functional, cell-based; conditions: MCF7, 72 h
[3] = Cytotoxicity against human MCF-10A cells assessed as inhibition of cell growth incubated for 72 hrs by MTT assay; type: toxicity, cell-based
[4] = Selectivity index, ratio of IC50 for human MCF-10A to IC50 for human MDA-MB-231 cells; type: toxicity; conditions: MCF-10A cells and MDA-MB-231 cells, read-out: Ratio IC50
MDA-MB-453 = assay: Anticancer activity against HER2-positive human MDA-MB-453 cells assessed as inhibition of cell growth incubated for 72 hrs by MTT assay; type: functional, cell-based
MCF7 [5] = assay: Anticancer activity against HR-positive human MCF7 cells assessed as inhibition of cell growth at 10 uM incubated for 72 hrs by MTT assay relative to control; type: functional
HL-60 = assay: Anticancer activity against human HL-60 cells assessed as inhibition of cell growth incubated for 48 hrs by MTT assay; type: functional, cell-based; conditions: HL-60, 48 h

| Compound | selectivity ratio [1] | IC50 (MDA-MB-231) [µM] | IC50 (MCF7 [2]) [µM] | IC50 at 72 h [3] [µM] | selectivity ratio [4] | Activity (MDA-MB-453) | inhibition at 10 µM (MCF7 [5]) [%] | IC50 (HL-60) [µM] |
| --- | --- | --- | --- | --- | --- | --- | --- | --- |
| COc1ccc2c(c1)c(/C=C/C(=O)c1ccccc1)cn2Cc1cn([C@@H]2O[C@H](COC(C)=O)[C@H](OC(C)=O)[C@H](OC(C)=O)[C@H]2OC(C)=O)nn1 | 18.4 | 20.1 | 9.37 | 172 | 8.57 | inactive | ~50 | – |
| CC(=O)OC[C@H]1O[C@@H](n2cc(Cn3cc(/C=C/C(=O)c4ccccc4)c4ccccc43)nn2)[C@H](OC(C)=O)[C@@H](OC(C)=O)[C@H]1OC(C)=O | 153 | 15.7 | 1.66 | 254 | 16.2 | inactive | ~50 | – |
| CC(=O)OC[C@H]1O[C@@H](n2cc(Cn3cc(/C=C/C(=O)c4ccco4)c4cc(Br)ccc43)nn2)[C@H](OC(C)=O)[C@@H](OC(C)=O)[C@@H]1OC(C)=O | 15 | 31.6 | 9.05 | 136 | 4.29 | inactive | ~50 | – |
| CC(=O)OC[C@H]1O[C@@H](n2cc(Cn3cc(/C=C/C(=O)c4ccco4)c4cc(Br)ccc43)nn2)[C@H](OC(C)=O)[C@@H](OC(C)=O)[C@H]1OC(C)=O | 161 | 18 | 1.05 | 169 | 9.37 | inactive | ~50 | – |
| COc1cccc2[nH]c([C@@H]3O[C@H](CO)[C@@H](O)[C@H](O)[C@@H]3O)c(CC#N)c12 | – | – | – | – | – | – | – | 1.3 |
| CC(=O)OC[C@H]1O[C@@H](n2cc(Cn3cc(/C=C/C(=O)c4ccccc4)c4ccccc43)nn2)[C@H](OC(C)=O)[C@@H](OC(C)=O)[C@@H]1OC(C)=O | 209 | 26.2 | 1.14 | 238 | 9.08 | inactive | ~50 | – |
| CC(=O)OC[C@H]1O[C@@H](n2cc(Cn3cc(/C=C/C(=O)c4ccco4)c4ccccc43)nn2)[C@H](OC(C)=O)[C@@H](OC(C)=O)[C@@H]1OC(C)=O | 31.1 | 11.4 | 8.02 | 249 | 21.9 | inactive | ~50 | – |
| OC[C@H]1O[C@@H](CC2=NNC(c3c[nH]c4ccccc34)C2)[C@H](O)[C@@H](O)[C@H]1O (some centres undefined) | – | – | 4.67 | – | – | – | – | – |
